# According to PubChem BioAssay (NCI):
#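 Interpolation was linear, between the two tested concentrations surrounding the appropriate level; five concentrations were tested over 48 hours in 96-well plates. At the GI50, growth is halved. The concentration for full growth arrest is given as TGI.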
# How the values were obtained:
# Test in all cases: NCI tumour cell line growth inhibition, 48 h
# [1] = system: A498 renal
# [2] = system: SNB-75 CNS
# [3] = system: SF-295 CNS
# [4] = system: SK-OV-3 ovarian
# [5] = system: RPMI-8226 leukemia
# [6] = system: NCI-H522 lung
# [7] = system: RXF 393 renal
# [8] = system: IGROV1 ovarian
# [9] = system: SR leukemia
# [10] = system: MOLT-4 leukemia
SMILES,TGI [1],TGI [2],TGI [3],TGI [4],TGI [5],TGI [6],TGI [7],TGI [8],TGI [9],GI50 [1],GI50 [10],TGI [10],GI50 [2],GI50 [3],GI50 [4],GI50 [5],GI50 [6],GI50 [7],GI50 [8],GI50 [9]
N=Nc1c(OC(=O)Nc2ccccc2)[nH]c2ccccc12,34.7 µM,50 µM,30.2 µM,36.8 µM,32.1 µM,36.6 µM,28.7 µM,42.2 µM,> 100 µM,,,,,,,,,,,
COc1cc(N2CCN(C(C)C)CC2)ccc1Nc1nc(Nc2cccc3ncccc23)c2cc[nH]c2n1,12 µM,> 15.4 µM,17.9 µM,19.1 µM,17.8 µM,9.05 µM,9.38 µM,> 25 µM,> 11.1 µM,0.811 µM,7.51 µM,> 23.2 µM,3.99 µM,5.46 µM,5.58 µM,5.68 µM,3.97 µM,3.93 µM,12.1 µM,1.14 µM
COc1ccc(CN2C(=O)C(Cc3cc(OC)c(OC)c(C)c3OC)NC(=O)/C2=C/c2cc(OC)c(OC)c(C)c2OC)cc1 (stereo not drawn),97.6 µM,> 100 µM,> 100 µM,> 100 µM,70.2 µM,50 µM,71.2 µM,> 100 µM,60.7 µM,,,60.6 µM,,,,,,,,
CCNC(C)(C)C(SS)c1ccc(Br)cc1 (stereo not drawn),> 100 µM,> 100 µM,> 100 µM,> 100 µM,76.1 µM,35.1 µM,> 100 µM,> 100 µM,> 100 µM,,,69.3 µM,,,,,,,,
CC1(C)OC(=O)[C@@](C)([C@H](O)c2ccccc2)O1,> 100 µM,> 100 µM,> 100 µM,> 100 µM,,> 100 µM,> 100 µM,> 100 µM,> 100 µM,,,> 100 µM,,,,,,,,
COc1ccc(C[n+]2c3ccccc3n3c4ccc(N)cc4ccc32)c(OC)c1OC,61.9 µM,10.8 µM,38.1 µM,49.2 µM,7.64 µM,15.7 µM,21.9 µM,40 µM,19.2 µM,17.5 µM,3.14 µM,35.2 µM,1.45 µM,4.22 µM,10.4 µM,0.512 µM,2.08 µM,6.3 µM,4.58 µM,2.75 µM
Cc1c(C)c2c(c(C)c1NC(=O)/C=C\C(=O)O)CCC(C)(CCCC(C)CCCC(C)CCCC(C)C)O2 (stereo not drawn),2.7 µM,2.58 µM,2.77 µM,3.25 µM,13.8 µM,4.94 µM,3.23 µM,4.88 µM,4.63 µM,1.38 µM,2.06 µM,7.19 µM,1.31 µM,1.32 µM,1.73 µM,2.17 µM,2.23 µM,1.74 µM,1.94 µM,1.61 µM
CC(C)(C)N/N=C(\Cc1occc(=O)c1O)C(=O)Nc1ccc([N+](=O)[O-])cc1[N+](=O)[O-],> 100 µM,> 100 µM,> 100 µM,> 100 µM,> 100 µM,> 100 µM,> 100 µM,> 100 µM,> 100 µM,,,> 100 µM,,,,,,,,
CC(=O)OCCOCNC(=S)N/N=C/c1ccc2ccccc2n1,> 100 µM,> 100 µM,> 100 µM,> 100 µM,> 100 µM,62.7 µM,> 100 µM,> 100 µM,> 100 µM,,,> 100 µM,,,,,,,,
O=c1oc2cc(N=Cc3ccccc3Cl)ccc2c2ccccc12,> 100 µM,> 100 µM,> 100 µM,,> 100 µM,> 100 µM,> 100 µM,> 100 µM,> 100 µM,,,> 100 µM,,,,,,,,
N#CC(C#N)=Cc1c(-c2ccccc2)[nH]c2ccccc12,22.4 µM,14.3 µM,15.5 µM,> 80.7 µM,4.62 µM,32.7 µM,> 33.3 µM,31.9 µM,> 100 µM,2.97 µM,13.3 µM,> 75.1 µM,2 µM,1.59 µM,5.57 µM,0.564 µM,4.23 µM,3.33 µM,0.743 µM,> 100 µM
C=C1C(=O)O[C@H]2[C@H]1CC/C(Cn1cc(CNCCc3c[nH]c4ccc(Cl)cc34)nn1)=C\CC[C@@]1(C)O[C@@H]21,34.5 µM,17.9 µM,> 100 µM,> 100 µM,5.55 µM,3.12 µM,9.69 µM,9.59 µM,9.66 µM,12.8 µM,2.54 µM,6.56 µM,4.88 µM,30.9 µM,35 µM,2.36 µM,1.58 µM,2.66 µM,2.44 µM,3.01 µM
[N-]=[N+]=Nc1ccc(CCN2CCN(c3cccc(C(F)(F)F)c3)CC2)cc1I,> 100 µM,> 100 µM,> 100 µM,> 100 µM,69.4 µM,> 100 µM,> 100 µM,,> 100 µM,,,> 100 µM,,,,,,,,
Oc1c(C(Nc2cccc3ccccc23)c2ccccc2)ccc2cccnc12 (stereo not drawn),23.9 µM,> 100 µM,> 100 µM,> 100 µM,> 100 µM,7.82 µM,19.1 µM,11 µM,22.5 µM,3.27 µM,2.41 µM,> 100 µM,5.67 µM,2.96 µM,5.9 µM,2.36 µM,2.74 µM,3.12 µM,3.79 µM,2.76 µM
NC(=O)c1cc(-c2ccncc2)cc(-c2ccccc2)c1N,21.9 µM,19.6 µM,> 25 µM,> 25 µM,> 25 µM,> 15.8 µM,24.9 µM,> 25 µM,> 25 µM,4.64 µM,20 µM,> 25 µM,4.76 µM,> 25 µM,11.5 µM,11.6 µM,7.68 µM,5.41 µM,9.48 µM,13.5 µM
COc1ccc(-c2nn(-c3ccc(NC(=O)c4ccc(Cl)c(C(F)(F)F)c4)cc3)cc2-c2ccncc2)cc1Cl,4.47 µM,6.42 µM,0.79 µM,,> 100 µM,> 100 µM,0.489 µM,> 100 µM,> 100 µM,0.237 µM,0.388 µM,> 100 µM,0.287 µM,0.217 µM,,0.39 µM,4.03 µM,0.168 µM,9.68 µM,0.316 µM

SMILES,TGI [1],TGI [2],TGI [3],TGI [4],TGI [5],TGI [6],TGI [7],TGI [8],TGI [9],GI50 [1],GI50 [10],TGI [10],GI50 [2],GI50 [3],GI50 [4],GI50 [5],GI50 [6],GI50 [7],GI50 [8],GI50 [9]
NC1=NC(c2ccc(Cl)cc2)N(c2ccc(S(=O)(=O)Nc3ncccn3)cc2)C(N)=N1 (stereo not drawn),> 100 µM,> 100 µM,> 100 µM,> 100 µM,> 100 µM,> 100 µM,> 100 µM,> 100 µM,> 100 µM,,,> 100 µM,,,,,,,,
CCN(CC)C(=O)CC1=C(C)/C(=C/c2[nH]c(-c3ccc[nH]3)cc2OC)N=C1C,7.12 µM,3.35 µM,1.73 µM,8.3 µM,2.28 µM,14 µM,22.9 µM,15.6 µM,0.994 µM,0.98 µM,0.357 µM,39.4 µM,0.307 µM,0.361 µM,0.658 µM,0.304 µM,0.456 µM,1.1 µM,0.43 µM,0.289 µM
N#CNC(N)=NCCO,> 100 µM,> 100 µM,> 100 µM,> 100 µM,> 100 µM,> 100 µM,68.3 µM,> 100 µM,86.2 µM,,,> 100 µM,,,,,,,,
O=C1c2ccccc2NC(c2cc(Cl)cc(Cl)c2O)N1CCc1ccccn1 (stereo not drawn),> 100 µM,> 100 µM,> 100 µM,> 100 µM,> 100 µM,> 100 µM,> 100 µM,> 100 µM,> 100 µM,,,,,,,,,,,
COc1cc(-c2nn(-c3ccc(NC(=O)Nc4ccc(Cl)c(Cl)c4)cc3)cc2-c2ccncc2)ccc1Cl,8.27 µM,9.75 µM,4.4 µM,> 100 µM,,,7.49 µM,> 100 µM,> 100 µM,2 µM,3.27 µM,> 100 µM,2.13 µM,1.82 µM,3.96 µM,,,2.16 µM,4.88 µM,3.77 µM
CN(CCC#N)c1ccc(/C=C(\C#N)c2cccc(C(F)(F)F)c2)cc1,8.89 µM,> 100 µM,> 100 µM,> 100 µM,> 100 µM,,> 100 µM,> 100 µM,> 100 µM,1.44 µM,3.06 µM,> 100 µM,4.47 µM,3.87 µM,36.7 µM,3.63 µM,,3.75 µM,4.95 µM,2.52 µM
O=C(/C=C/C12c3ccccc3C(c3ccccc31)C1C(=O)N(c3ccccc3)C(=O)C12)c1ccc(Cl)cc1 (stereo not drawn),2.44 µM,6.77 µM,,> 100 µM,4.68 µM,3.58 µM,2.87 µM,6.09 µM,> 100 µM,1.16 µM,0.759 µM,> 100 µM,1.37 µM,,5.28 µM,1.16 µM,1.74 µM,1.27 µM,2.1 µM,1.07 µM
C=CCn1c(=O)c2cnc(Nc3ccc(N4CCN(C)CC4)cc3)nc2n1-c1ccc2c(n1)[C@@](O)(CC)CC2,3.62 µM,13.7 µM,18.7 µM,4.48 µM,14.5 µM,0.888 µM,0.686 µM,13.6 µM,1.38 µM,0.161 µM,0.296 µM,1.37 µM,1.07 µM,0.742 µM,0.284 µM,1.74 µM,0.221 µM,0.131 µM,0.212 µM,0.193 µM
Cc1csc(/C=N/NC(=O)c2nnn(-c3ccnc4c(C(F)(F)F)cccc34)c2C)c1,> 100 µM,92.1 µM,> 100 µM,> 100 µM,> 100 µM,> 100 µM,62.7 µM,> 100 µM,> 100 µM,83.1 µM,48.8 µM,> 100 µM,27.2 µM,34.7 µM,28.7 µM,33.7 µM,28.7 µM,1.41 µM,> 100 µM,19.3 µM
O=C1c2cccc3cc([N+](=O)[O-])cc(c23)C(=O)N1NC1=NCCN1,> 100 µM,> 100 µM,> 100 µM,> 100 µM,> 100 µM,> 100 µM,> 100 µM,> 100 µM,> 100 µM,,,> 100 µM,,,,,,,,
Cc1cc(=O)oc2c(CN3CCCCC3)c(O)ccc12,> 100 µM,> 100 µM,> 100 µM,,> 100 µM,> 100 µM,> 100 µM,> 100 µM,> 100 µM,,,> 100 µM,,,,,,,,
O=C(O)C1CCc2nnc(-c3ccccc3)n21 (stereo not drawn),> 100 µM,> 100 µM,,> 100 µM,> 100 µM,> 100 µM,> 100 µM,> 100 µM,> 100 µM,,,> 100 µM,,,,,,,,
NC(N)=NS(=O)(=O)c1ccc(Nc2c3ccccc3nc3c(C(=O)N4CCN(CCO)CC4)cccc23)cc1,> 100 µM,> 100 µM,> 100 µM,> 100 µM,,> 100 µM,> 100 µM,> 100 µM,> 100 µM,,,> 100 µM,,,,,,,,
[C-]#[O+].[Cl][Sn]([Cl])[Cl].[Cl][Sn]([Cl])[Cl].[Pt].c1ccc([PH+](c2ccccc2)c2ccccc2)cc1.c1ccc([PH+](c2ccccc2)c2ccccc2)cc1,50.1 µM,> 100 µM,> 100 µM,> 100 µM,80.3 µM,56.7 µM,9.82 µM,> 100 µM,> 100 µM,18.8 µM,,,> 100 µM,71.5 µM,48.2 µM,27.7 µM,23.3 µM,1.57 µM,20.9 µM,37.7 µM
COc1cc(=O)oc(/C=C/C=O)c1C,> 100 µM,32.8 µM,30.3 µM,75.9 µM,,35.3 µM,34.8 µM,> 100 µM,7.6 µM,,,77.3 µM,,,,,,,,
O=S1CSCS1 (stereo not drawn),> 100 µM,> 100 µM,> 100 µM,> 100 µM,,> 100 µM,> 100 µM,> 100 µM,> 100 µM,,,> 100 µM,,,,,,,,
